Key:
reconstructed corneas [1] = experiment: Live-dead staining of reconstructed corneas after chemical exposure; format: cell-based, human; details: SDS; 0.01% benzalkonium chloride solution
Text: Live cells are green, while dying or dead cells are orange-red. […] C.

reconstructed corneas [2] = experiment: RT-PCR of gene expression in SDS-treated reconstructed corneas; format: cell-based, human; details: 5% SDS in M199; reconstructed whole corneas
Procedure: Band intensities for the indicated genes were quantitated by a phosphoimager and were divided by the intensity of the corresponding GAPDH band. Corneas were treated with 5% SDS in medium for 1 or 3 minutes, then washed twice with medium. Total RNA was extracted at 1 hour after the SDS treatment, and RT-PCR was carried out for specific primers for various genes. Reverse transcription-polymerase chain reaction (RT-PCR) was used to examine changes in expression of the above genes in corneal epithelial cell lines compared to primary cells, and in artificial corneas compared to human corneas from the eye bank after exposure to a detergent SDS. The cells were exposed to 0.02% SDS in M199 for 2 minutes. Corneas were treated with 5% SDS in M199. Controls were dosed with M199 only. RT-PCR was performed on RNA from cells and corneas obtained at different time points after injury. Semi-quantitative analyses were conducted by introducing the housekeeping gene, glyceraldehyde-3-phosphate dehydrogenase (GAPDH) as an internal control and by Southern analysis. PCR products were sequenced to confirm their identity. […] However, these changes were more marked in the reconstructed whole corneas than in the epithelial monolayers.

[3] = system: corneal epithelial cell lines and primary epithelial cells; experiment: RT-PCR of mRNA expression in corneal epithelial cells after SDS exposure; format: cell-based, human
Text: Corneal epithelial cell lines were exposed to sodium dodecyl sulfate (SDS) to characterise the changes in mRNA expression of early response genes such as c-fos and c-jun, cytokines probably involved with corneal wound healing such as interleukins (IL-1a and IL-6), basic fibroblast growth factor (bFGF), vascular endothelial growth factor (VEGF) and epidermal growth factor (EGF), and matrix molecules that are elaborated during healing such as collagens types I, III and V. Reverse transcription-polymerase chain reaction (RT-PCR) was used to examine changes in expression of the above genes in corneal epithelial cell lines compared to primary cells, and in artificial corneas compared to human corneas from the eye bank after exposure to a detergent SDS. The cells were exposed to 0.02% SDS in M199 for 2 minutes. Corneas were treated with 5% SDS in M199. Controls were dosed with M199 only. RT-PCR was performed on RNA from cells and corneas obtained at different time points after injury. Semi-quantitative analyses were conducted by introducing the housekeeping gene, glyceraldehyde-3-phosphate dehydrogenase (GAPDH) as an internal control and by Southern analysis. PCR products were sequenced to confirm their identity. Baseline levels of the 10 mRNAs examined were established in control epithelial cells and corneas (n> or =6 for each time point). […] However, changes in MRNA expression for bFGF, VEGF, EGF and collagen III were non-significant.

reconstructed corneas [4] = experiment: Responses of reconstructed corneas to aqueous test chemicals (wound, corneal transparency); format: cell-based, human; details: 10% SDS, 0.01% benzalkonium chloride solution
Procedure: Each cornea was exposed centrally to 100 μl of the test chemical for 10 min, after which the chemical was washed off with saline and the corneas were re-cultured for a further 3 days. The saline-treated cornea served as the control.

human eye bank corneas = experiment: RT-PCR of gene expression in human eye bank corneas after SDS exposure; format: cell-based; details: 5% SDS in M199
Procedure: Reverse transcription-polymerase chain reaction (RT-PCR) was used to examine changes in expression of the above genes in corneal epithelial cell lines compared to primary cells, and in artificial corneas compared to human corneas from the eye bank after exposure to a detergent SDS. The cells were exposed to 0.02% SDS in M199 for 2 minutes. Corneas were treated with 5% SDS in M199. Controls were dosed with M199 only. RT-PCR was performed on RNA from cells and corneas obtained at different time points after injury. Semi-quantitative analyses were conducted by introducing the housekeeping gene, glyceraldehyde-3-phosphate dehydrogenase (GAPDH) as an internal control and by Southern analysis. PCR products were sequenced to confirm their identity.

[5] = 0.02% SDS in M199 for 2 minutes, within 1 hour of injury, primary epithelial cells and cell lines

CCCCCCCCCCCCOS(=O)(=O)[O-].[Na+] [SDS, sodium dodecyl sulfate]
live-dead staining, epithelial cells (reconstructed corneas [1]): mostly dead and dying cells
live-dead staining, stromal cells (reconstructed corneas [1]): orange-red dead or dying cells
penetration into the stromal compartment (reconstructed corneas [1]): penetration of the detergent into the stroma
extent of changes in gene expression versus epithelial monolayers (reconstructed corneas [2]): more marked
IL-1a mRNA expression ([3]; 0.02% SDS for 2 minutes): increased expression
IL-6 mRNA expression ([3]; 0.02% SDS for 2 minutes): increased expression
changes in mRNA expression for EGF ([3]; 0.02% SDS for 2 minutes): non-significant
changes in mRNA expression for VEGF ([3]; 0.02% SDS for 2 minutes): non-significant
changes in mRNA expression for bFGF ([3]; 0.02% SDS for 2 minutes): non-significant
changes in mRNA expression for collagen III ([3]; 0.02% SDS for 2 minutes): non-significant
collagen I mRNA expression ([3]; 0.02% SDS for 2 minutes): increased expression
collagen V mRNA expression ([3]; 0.02% SDS for 2 minutes): increased expression
expression of c-fos, time course ([3]; 0.02% SDS for 2 minutes, 24 hours): returned to baseline levels by the end of 24 hours
expression of c-jun, time course ([3]; 0.02% SDS for 2 minutes, until day 6): remained high until day 6 after injury
expression of c-fos [3, 5]: significantly increased
expression of c-jun [3, 5]: significantly increased
wound / change of corneal transparency (reconstructed corneas [4]; 100 μl centrally for 10 min, washed off with saline, re-cultured 3 days): caused wounds to the centre of the cornea
healing of the wound (reconstructed corneas [4]; 100 μl for 10 min, re-cultured a further 3 days): still unhealed
changes in gene expression (human eye bank corneas): responded to SDS exposure with changes in gene expression
